From US20060276495A1, “Treatment methods of nasal congestion and nasal obstruction” (Schering Corporation, priority 2001, published 2006)

Key:
[1] = system: seasonal allergic rhinitis patients; test: four double-blinded, randomized clinical trials in seasonal allergic rhinitis patients; type: in vivo, human
From the text: The clinical efficacy and safety of desloratadine has been documented in over 3,200 seasonal allergic rhinitis patients in four double-blinded, randomized clinical trials.
Efficacy endpoints in all the studies were Total Symptom Score, Total Nasal Symptom Score, Total Non-nasal Symptom Score, and Health Quality of Life (HQOL) analysis in efficacy trials. […] An important efficacy endpoint analyzed in the desloratadine studies is the AM NOW total symptom score. This parameter measures the total symptom relief by the patient after 24 hours before taking the next day dose.

patients with SAR = test: pooled randomized, parallel-group, double-blind, placebo-controlled studies of nasal congestion/stuffiness in patients with SAR; type: in vivo, human; conditions: for nasal congestion/stuffiness severity score (0-3), 14-day average change from baseline: baseline score 2.4
Experimental: The effects of desloratadine on nasal congestion/stuffiness are described by using data pooled from randomized, parallel-group, double-blind, placebo-controlled studies of desloratadine in patients with SAR. Patients (12-75 years; pooled n-659-662/group) with a ≧2-year history of seasonal allergic rhinitis and moderate-to-[…] severe symptoms present at the time of enrollment received desloratadine (5 mg or 7.5 mg) or placebo PO once a day for 14 days. The severity (0=none, 1=mild, 2=moderate, 3=severe) of congestion/stuffiness was assessed by patients for the study duration. The 14-day average change in symptom severity score from baseline was assessed. The mean symptom severity score for nasal congestion/stuffiness was 2.4 in each treatment group at baseline, indicating patients had moderate-to-severe nasal congestion before receiving treatment.

With `Clc1ccc2c(c1)CCc1cccnc1C2=C1CCNCC1` [Desloratadine, desloratadine] the “total symptom scores (sum of individual scores for rhinorrhea, sneezing, congestion/stuffiness, nasal itching, itchy/burning eyes, tearing, ocular redness, itchy ears/palate)” value ([1]; 5 mg once daily, adult and adolescent SAR patients) was “significantly reduced”, the “reducing nasal symptoms vs placebo” value ([1]; 5 mg, p<0.01 vs placebo) was “significantly (p<0.01) more effective than placebo” and the “AM NOW total symptom score (symptom relief after 24 hours, before next day dose)” value ([1]; entire 5 mg to 20 mg dosage range, p<0.05) was “Statistically significant (p<0.05) reductions were maintained for the full 24 hour dosing interval”. The “nasal congestion/stuffiness severity score (0-3), 14-day average change from baseline” value (patients with SAR; 5 mg PO once a day for 14 days, P=0.02 vs placebo) was “significantly decreased”, the total symptom severity (patients with SAR; 5 mg or 7.5 mg PO once a day for 14 days, vs placebo) was “significantly decreased” and the “nasal congestion/stuffiness severity score (0-3), 14-day average change from baseline” value (patients with SAR; 7.5 mg PO once a day for 14 days, P=0.01 vs placebo) was “significantly decreased”.
